Experimental data reported in US20210380547A1, “UREA DERIVATIVES FOR TREATING AND/OR PREVENTING CANCER” (CENTRE NATIONAL DE LA RECHERCHE SCIENTIFIQUE, priority 2018, published 2021).
pEC50: −log10 of the molar value. Like-named read-outs stand apart in the source and are kept apart here.

How the values were obtained:
A498 = experiment: XTT cell viability assay, A498; format: cell-based, human; details: Homo sapiens, A498; XTT assay (48 h); standard deviation of 10%; read-out: EC50 (μM) Kidney A498
Protocol: (§1) Fifty microliters of sodium 3′-[1-phenylaminocarbonyl)-3,4-tetrazolium]-bis(4-methoxy-6-nitro) benzene sulfonic acid hydrate (XTT) reagent was added to each well. The assay is based on the cleavage of the yellow tetrazolium salt XTT to form an orange formazan dye by metabolically active cells. The absorbance of the formazan product, reflecting cell viability, was measured at 490 nm. Each assay was performed in quadruplicate.
(§2) Compounds #1-#14 have been assayed as potential anti-proliferative agents against a panel of human breast head and neck, and kidney tumor cells and hematological malignancies, selected on the basis of their aggressiveness (e.g. incurable triple-negative breast cancer cells: MDA-MB-231; kidney ccRCC cells: RCC4, A498 and 786-O and 786R; head and neck cancer cells: CAL33, CAL33RR, CAL27, and CAL27RR; acute myeloid cell lines: OCI-AML2, OCI-AML3, MolM13, and MolM14; myelodysplastic cell line: SM1; and chronic myeloid cell line: CML). All these cell lines share as common denominator the expression of CXCR1 and CXCR2. The EC50 values have been measured by a XTT colorimetric assay, and compared to those of SB-225002, used as a reference; the results are listed in Table 1.

caspase-3 activity = experiment: Caspase-3 activity assay; format: cell-based, human; details: 2.5 μM, 48 hr, 786-O and 786-R
Protocol: F: Cells were treated with 2.5 and 5 μM compound #1, with 2.5 μM sunitinib for 48 hr. Cells were lysed in caspase buffer and caspase-3 activity was evaluated using 0.2 mM Ac-DEVD-AMC as substrates. Results expressed as arbitrary units (A.U.) and are means±Standard deviation of 3 independent experiments;
Caspase 3 activity was assessed in quadruplicates using z-DEVD-AMC as substrate and fluorescence were assessed.

MDA-MB-231 = experiment: XTT cell viability assay, MDA-MB-231; format: cell-based; details: Homo sapiens, XTT assay (48 h), standard deviation of 10%, read-out: EC50 (μM) Breast MDA-MB-231
Protocol: as §1, §2

MolM14 = experiment: XTT cell viability assay, MolM14; format: cell-based, human; details: Homo sapiens, MOLM-14; XTT assay (48 h); standard deviation of 10%; read-out: EC50 (μM) AML MolM14
Protocol: as §1, §2

MolM13 = experiment: XTT cell viability assay, MolM13; format: cell-based, human; details: Homo sapiens, MOLM-13; XTT assay (48 h); standard deviation of 10%; read-out: EC50 (μM) AML MolM13
Protocol: as §1, §2

[1] = tested on: primary RCC cells (TF and CC); experiment: XTT cell viability and colony assay, primary RCC cells; format: cell-based; details: Homo sapiens, XTT 48 h, read-out: EC50 proliferation of primary kidney tumor cells
Protocol: A: Primary RCC cells (TF and CC) and normal renal cells (15S) were treated with compound #1 (1 to 5 μM) for 48 h. Cell viability was measured by XTT assays;
B: Primary RCC cells (TF and CC) were treated with compound #1 (1 or 2.5 μM) and colored with Giemsa blue after 10 days (representative results of an experiment repeated trice);
as §1
The biological effects of compound #1 on primary RCC tumors cells and normal renal cells harvested from patients suffering from kidney cancer have been explored (FIG. 4).

DAOY and HD-MB03 cells [2] = experiment: Proliferation test, medulloblastoma cells; format: cell-based; details: 1 μM, cell counts days 1 to 8, vs DMSO
Protocol: FIG. 7: Inhibition of proliferation of medulloblastoma cells by compound #1. Cells were treated or not with 1 μM compound #1 for the indicated days. Cells were counted at the indicated days. * p<0.05; ** p<0.01; *** p<0.001.
1500 DAOY and HD-MB03 cells were seeded in a 6-well plate with or without treatment (1 μM of compound #1 or DMSO as control “CONT”), at 37° C. in a 5% CO2 incubator. Cells were dissociated using trypsone 1X-EDTA (Gibco® Life Technologies) and were counted with Coulter Beckman® counter (Villepinte) at days 1, 4, 6, 7, and 8. Each assay was performed in triplicate.

786-O = experiment: XTT cell viability assay, 786-O; format: cell-based, human
Protocol: (§3) A, B: Naive (786-O, A), and sunitinib-resistant (786-R, B) 786-O cells, were treated with compound #1 or sunitinib (1 to 10 μM) for 48 hr. Cell viability was measured by XTT assays;
(§4) D, E: 786-O (D), 786-R (E), were treated with 2.5 μM compound #1 or 2.5 μM sunitinib for 24 h to 96 h. The cells metabolism was measured by XTT assay;
as §1, §2

DAOY and HD-MB03 cells [3] = experiment: Clonogenicity, medulloblastoma cells; format: cell-based; details: 1 μM, Day+7 (DAOY), Day+11 (HD-MB03)
Protocol: FIG. 8: Inhibition of proliferation of medulloblastoma cells by compound #1. Clonogenicity tests; […].
150 DAOY cells and 300 HD-MB03 cells were seeded in a 6-well plate with or without treatment (1 μM of compound #1 or DMSO as control “CONT”). At Day+7 (DAOY) and Day+11 (HD-MB03), cells were mixed with absolute ethanol for 20 minutes, washed with PBS and colored with Giemsa 50% for 30 minutes. After washing, the boxes were scanned and the number of clones was quantified using ImageJ® software. Each assay was performed in duplicate.

healthy cells 15S = experiment: FACS apoptosis markers, normal renal cells; format: cell-based, human; details: 48 h
Protocol: (§5) C: Primary RCC cells (TF and CC) and normal renal cells (15S) were treated with compound #1 (1 to 5 μM) for 48 h. Cells were stained with the PI/annexin-V-fluos staining kit according to the manufacturer's indications. Histograms show both annexin-V+/PI− cells (open bars) and annexin-V+/PI+ cells (filled bars). *P<0.05; **P<0.01; ***P<0.001.
(§6) Apoptosis analysis: After stimulation, cells were washed with ice-cold PBS and were stained with the annexin-V-fluos staining kit (Roche, Meylan, France) according to the manufacturer's procedure. Fluorescence was measured by using the FL2 (AV) and FL3 (propidium iodide, PI) channels of a fluorescence-activated cell sorter apparatus (Calibur cytometer).

TF and CC cells = experiment: FACS apoptosis markers, primary RCC cells; format: cell-based, human; details: 1 μM, 48 h
Protocol: as §5, §6

786R = experiment: XTT cell viability assay, 786R (sunitinib-resistant); format: cell-based, human; details: for EC50: XTT assay (48 h), sunitinib-resistant, standard deviation of 10%, read-out: EC50 (μM) Kidney 786R
Protocol: as §3, §4, §1, §2

With O=C(Nc1cccc(Cl)c1)Nc1nc2ccc([N+](=O)[O-])cc2s1 [Compound #1, 1-(3-chlorophenyl)-3-(6-nitrobenzo[d]thiazol-2-yl)urea] the EC50 (A498) was 2.5 µM, the caspase-3 activity (caspase-3 activity) was “significantly strengthened” and the EC50 (MDA-MB-231) was 2.5 µM. The EC50 (MolM14) was 4 µM, the EC50 (MolM13) was 7 µM and the pEC50 [1] was ~5.70. The “proliferation of DAOY and HD-MB03 cells” value (DAOY and HD-MB03 cells [2]) was “significatively reduces the proliferation”, the “time of treatment to total inhibition of proliferation” value (786-O; 786-O cells, 2.5 μM, XTT 24 h to 96 h) was “approximately 65 hours” and the EC50 (786-O; Homo sapiens, 786-0, XTT assay (48 h), standard deviation of 10%, read-out: EC50 (μM) Kidney 786-O) was 2 µM. The “formation of DAOY and HD-MB03 clones” value (DAOY and HD-MB03 cells [3]) was “significatively reduces the formation”, the “apoptosis markers in healthy cells 15S” value (healthy cells 15S) was “not the case with healthy cells 15S” and the “apoptosis markers in TF and CC cells” value (TF and CC cells) was “puts into exergue the apoptosis markers in TF and CC cells”. For the same compound, the “time of treatment to total inhibition of proliferation” value (786R; 786-R cells, 2.5 μM, XTT 24 h to 96 h) was ~100 h, the EC50 (786R; Homo sapiens, 48 h) was 2 µM and the EC50 (786R) was 2.5 µM.
